Measured values as given in patent US8497380B2, “Substituted acetophenones useful as PDE4 inhibitors” (Leo Pharma A/S, priority 2006, dated 2013).

Tested on: Human peripheral blood mononuclear cells (PBMC)
Experiment: TNFalfa-Release
Type: cell-based
Conditions: inhibition of TNF-a secretion, PBMC pre-incubated 30 minutes, stimulated 18 hours with lipopolysaccharide
Outline: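 Buffy-coat PBMC at 5×105 c/ml in RPMI1640 with 2% FCS were pre-incubated 30 min with compound, then stimulated 18 h with LPS 1 mg/ml. Supernatant TNF-a measured by enzyme immunoassay; pIC50 from inhibition curves relative to LPS-stimulated and unstimulated wells.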

SMILES | IC50 [nM]
C=CCOc1c(OC)ccc(C(=O)Cc2c(Cl)cncc2Cl)c1OC [Compound 193, 1-(3-Allyloxy-2,4-dimethoxy-phenyl)-2-(3,5-dichloro-pyridin-4-yl)-ethanone] | < 1000
CCOC(=O)CCCCOc1c(C(=O)Cc2c(Cl)cncc2Cl)ccc(OC)c1OC [Compound 182, 5-{6-[2-(3,5-Dichloro-pyridin-4-yl)-acetyl]-2,3-dimethoxy-phenoxy}-pentanoic acid ethyl ester] | < 1000
